Here are results for 9 compounds from PMC10398856 (ACS Omega, 2023).

The subject of one data set is SARS-CoV-2. Nature of the data set: microbe, parasite or virus in culture. Format: cell-based. The following applies: for EC50: Severe acute respiratory syndrome coronavirus 2, 48 h, read-out: EC50, antiviral effect on SARS-CoV-2.
Data set [1] relates to human coronavirus 229E (HCoV-229E). Nature of the data set: microbe, parasite or virus in culture. The data set is classed as cell-based. The following applies: for IC50: Human coronavirus 229E, A549, read-out: IC50, antiviral effect on HCoV-229E.
A short description of data set [2]: in vivo. The following applies: female, Wistar Albino, rat, po.
Data set [3] in a line: in vivo. The note with it: male, Wistar Albino, rat, po, 10 mg/kg.
The conditions of data set [4]: rat, in vivo.
The conditions of data set [5]: 1 μM, 30 min, 37 °C.

A value given as a limit tells only on which side of the number the result lay.

With `O=c1cc(OCCOc2ccnc(SCc3ccc(F)cc3)n2)c2ccccc2o1` [5a, 4-(2-((2-((4-Fluorobenzyl)thio)pyrimidin-4-yl)oxy)ethoxy)-2H-chromen-2-one], the 50% effective concentration (EC50) (commonly the concentration giving half of the maximal effect) in the data set on SARS-CoV-2 was over 50 µM. Also, in data set [1], the IC50 (in general, the midpoint of a concentration-inhibition curve) was over 25 µM.
As to `O=c1cc(OCCCOc2ccnc(SCc3ccc(F)cc3)n2)c2ccccc2o1` [5b, 4-(3-((2-((4-Fluorobenzyl)thio)pyrimidin-4-yl)oxy)propoxy)-2H-chromen-2-one], the 50% effective concentration (EC50) in the data set with SARS-CoV-2 was over 50 µM. Also, the IC50 in data set [1] was over 25 µM.
On to `O=c1cc(OCCOc2ccnc(SCc3ccc(F)cc3)n2)c2cc(F)ccc2o1` [5c, 6-Fluoro-4-(2-((2-((4-fluorobenzyl)thio)pyrimidin-4-yl)oxy)ethoxy)-2H-chromen-2-one], for which the EC50 with SARS-CoV-2 is over 50 µM. The IC50 in data set [1] was over 25 µM.
With `O=c1cc(OCCCOc2ccnc(SCc3ccc(F)cc3)n2)c2cc(F)ccc2o1` [5d, 6-Fluoro-4-(3-((2-((4-fluorobenzyl)thio)pyrimidin-4-yl)oxy)propoxy)-2H-chromen-2-one], the EC50 in the data set on SARS-CoV-2 was determined as 14.3 ± 0.14 µM. In addition, in “in vivo [2]”, the LD50 (as a rule, the dose expected to kill half of the subjects tested) was 500 to 1000 mg/kg. Also, in “in vivo [3]”, the Cmax (in general, the peak of the concentration-time curve) was found to be 220 ng/mL and the half-life (as a rule, the time needed for the level to fall by half in the phase considered) is 73.3 h. For the same compound, the GHS classification category entry in data set [4] (female, Wistar Albino) is on record as “Category-4”. Also, the “clinical signs of toxicity and gross pathological changes” value in data set [4] (po, 300 mg/kg) is “no signs of toxicity”. The IC50 in data set [1] amounted to 15.4 µM.
For `Cc1cccc(CSc2nccc(OCCOc3cc(=O)oc4ccccc34)n2)c1` [5e, 4-(2-((2-((3-Methylbenzyl)thio)pyrimidin-4-yl)oxy)ethoxy)-2H-chromen-2-one], the “metabolic stability against rat liver microsomes” value in data set [5] is on record as “showed metabolic stability”. In the data set on SARS-CoV-2, the “selectivity index, SARS-CoV-2” value was found to be 11.4 and the EC50 is 6.59 ± 0.28 µM. Further, where the note is “1 μM, 30 min, 37 °C”, the “metabolic stability against human liver microsomes” value is “showed metabolic stability”. Moreover, the “compound found to be stable in human liver microsomes” value (human) is over 50%. In data set [1], the “selectivity index, HCoV-229E” value came out at 3.06 and the IC50 was found to be 24.4 µM.
Take `Cc1cccc(CSc2nccc(OCCCOc3cc(=O)oc4ccccc34)n2)c1` [5f, 4-(3-((2-((3-Methylbenzyl)thio)pyrimidin-4-yl)oxy)propoxy)-2H-chromen-2-one]: in the data set on SARS-CoV-2, the “selectivity index, SARS-CoV-2” value was under 1 and the EC50 is over 50 µM. The IC50 in data set [1] is over 25 µM.
With `Cc1cccc(CSc2nccc(OCCOc3cc(=O)oc4ccc(F)cc34)n2)c1` [5g, 6-Fluoro-4-(2-((2-((3-methylbenzyl)thio)pyrimidin-4-yl)oxy)ethoxy)-2H-chromen-2-one], in the data set with SARS-CoV-2, the EC50 was over 50 µM. For the same compound, the IC50 in data set [1] is over 25 µM.
Regarding `Cc1cccc(CSc2nccc(OCCCOc3cc(=O)oc4ccc(F)cc34)n2)c1` [5h, 6-Fluoro-4-(3-((2-((3-methylbenzyl)thio)pyrimidin-4-yl)oxy)propoxy)-2H-chromen-2-one], the EC50 with SARS-CoV-2 is over 50 µM. Further, the IC50 in data set [1] was over 25 µM.
For `O=c1cc(OCCOc2ccnc(SCc3ccc(Cl)cc3)n2)c2ccccc2o1` [5i, 4-(2-((2-((4-Chlorobenzyl)thio)pyrimidin-4-yl)oxy)ethoxy)-2H-chromen-2-one], in the data set with SARS-CoV-2, the “selectivity index, SARS-CoV-2” value is given as under 1 and the EC50 was over 50 µM. The IC50 in data set [1] was over 25 µM.
